According to patent publication US10780069B2, “Use of GC-1 in transplant related population” (University of Pittsburgh—Of the Commonwealth System of …, priority 2017, dated 2020):

Tested on: hepatocytes
Assay: T3 or GC-1 in LRP5-6 LKO mice and littermate controls
Assay type: in vivo
Protocol: Eight to 10 week-old LRP5-6-LKO were obtained from breeding homozygous LRP5-6 double floxed mice with albumin-cre transgenic mice as described previously (Yang et al. (2014) Hepatology 60, 964-976). LRP5-6-LKO or sex matched littermate controls were given either T3-supplemented diet (n=4), basal diet (n=3), IP GC-1 (n=3) or IP DMSO (n=3). Mice were sacrificed at 24 hours after the last IP injection.
To label dividing hepatocytes, BrdU (5-bromodeoxyuridine) dissolved in drinking water (1 mg/ml) was given to all animals throughout the experiment period. The animals were given food and water ad libitum with a 12-hour light/dark daily cycle. […]
Protein extraction from frozen liver tissue and western blot analysis were performed as previously described (Fanti et al., (2014) Hepatology 59, 2309-2320). For protein extraction, a small amount of frozen liver tissue was obtained (over dry ice) and was homogenized using RIPA buffer with protease and phosphatase inhibitor cocktail (Sigma, St. Louis, Mo.). Samples were transferred to a 1.5 ml tube on ice, and spun in cold room centrifuge at 14,000 RPM for 5 minutes. Pellet was then discarded and sample was aliquoted and stored at −80 C for use. Fifty micrograms of the proteins were resolved by sodium dodecyl sulfate-polyacrylamide gel electrophoresis analysis, and transferred to immobilon-polyvinylidene difluoride membranes.
The primary antibodies used were against β-catenin (BD Biosciences); pSer675-β-catenin, pSer552-β-catenin, Active-β-catenin (Cell-Signaling), Cyclin-D1 (Thermo-Scientific), and β-Actin (Sigma). Dilutions of primary antibody were done according to manufacturer recommendations (1:1000 for all except Cyclin-D1 which was 1:200). Horseradish peroxidase-conjugated secondary antibodies used were goat anti-mouse (1:20,000) and goat anti-rabbit (1:10,000) (Millipore). The proteins were detected by Super-Signal West Pico Chemiluminescense Substrate (Thermo Scientific, Rockford Ill.) and visualized by autoradiography. […]

Question: How did the “pSer675-β-catenin levels, Western blot” value (LRP5-6-LKO and littermate controls) turn out when `Cc1cc(OCC(=O)O)cc(C)c1Cc1ccc(O)c(C(C)C)c1` [GC-1, Sobetirome] was run?
Answer: comparable or even greater levels

Question: And the “pSer552-β-catenin levels, Western blot” value (LRP5-6 LKO)?
Answer: modest increase

Question: And the “active β-catenin levels” value (LRP5-6 LKO after T3 or GC-1 feeding vs basal diet)?
Answer: no notable differences

Question: And the “cyclin-D1 protein and mRNA expression” value (LRP5-6 LKO vs controls)?
Answer: decreased

Question: And the “numbers of cyclin-D1-positive hepatocytes (immunohistochemistry)” value (LRP5-6 LKO vs controls)?
Answer: notably decreased

Question: And the “total β-catenin levels” value (LRP5-6 LKO vs controls)?
Answer: comparable levels

Question: And the “number of BrdU-labeled hepatocyte nuclei” value (LRP5-6 LKO vs controls, T3 diet 4 mg/Kg of diet or GC-1 0.3 mg/Kg/dose IP 8 days)?
Answer: notable decrease

Question: What about the “active β-catenin levels in liver lysates” value (control mice fed T3 or GC-1 diet for 8 days vs basal diet) of the same compound?
Answer: dramatic increase
